Patent US9814727B2, “Piperazine phenothiazine derivatives for treating spasticity” (UNIVERSITE D'AIX-MARSEILLE, priority 2014, dated 2017)

Experiments:
KCC2 = assay: FluxOR fluorescence based thallium (Tl+) influx assay on KCC2-expressing HEK293 cells; type: cell-based; conditions: for effect on KCC2 activity, normalized to the maximal effect obtained with compound 1: 30 μM, HEK KCC2 cells, 15 minutes incubation
Method: Wild-type or KCC2-expressing Human Embryonic Kidney (HEK) 293 cells (provided by Prof. Eric Delpire Department of Anesthesiology, Vanderbilt University Medical Center, Nashville, Tenn.) were grown up to 80-90% confluence in DMEM/Ham's F-12 (1:1) (Life technologies, Carlsbad, Calif., USA) supplemented with 10% FBS (Life technologies), 50 units/mL penicillin, and 50 µg/mL streptomycin (Life technologies). KCC2-expressing clones were under puromycin selection (20 μg/ml, Life technologies).
The FluxOR™ potassium ion channel assay (Life Technologies Carlsbad, Calif., USA) was performed as outlined in the product information sheet and an earlier published study (Delpire et al., 2009, Proc. Natl. Acad. Sci. USA, 106, 5383-88) to assess KCC2 activity, and adapted to semi-automated high throughput screening. The experiment was performed in the presence of ouabain 200 μM and bumetanide 10 μM in all buffers to block the Na^+/K^+ pump and NKCC1 cotransporters, respectively. Briefly, cells in suspension were incubated in the loading buffer containing the dye at room temperature for 90 min (1/2000 dilution of FluxOR reagent) at the density of 100.000 cells/75 μl, then centrifugated and resuspended in Assay buffer at the same cell density. A number of 100.000 cells (75 μl) were manually handled in each well to the 96-wells black-walled, μclear-bottom plates (Greiner Bio-One, Monroe, N.C., USA) and 5 μl of chemical compounds 1-8 at different concentrations in PBS 1% DMSO (5, 30 and 50 μM) were added to the plates using the Biomek® NX Laboratory automation workstation (Beckman Coulter, Villepinte, France). After 15 minutes incubation, baseline fluorescent signal was measured with the Polarstar omega microplate reader (490 nm excitation and 520 nm emission, BMG Labtech). Then 20 μL per well of 5× thallium stimulus buffer (final concentrations: Tl^+: 2 mM, K^+: 10 mM) was injected and fluorescent signal was read 30 minutes later.
For each plate, 2 columns were dedicated to controls (cell density range from 0.25 to 1.10^5 cells; loading buffer as blank; untreated or treated with NEM (33 μM, for 15 min) wild-type and KCC2-expressing HEK293 cells).
Baseline fluorescent value was subtracted from the fluorescent value measured 30 min after stimulus buffer injection for each well, and this difference was normalized to the number of cells. […] Values converted to percentages such that the maximum of ratio is 100%.

HEK cells = assay: PrestoBlue cell viability assay (cytotoxicity); type: cell-based, Human; conditions: 30 μM
Method: Cytotoxicity were evaluated with fluorescent viability assay on HEK cells lines incubated 1 h with several concentrations of drugs. TC50: Toxic Concentration for 50% of the population.
After stimulus buffer induced signal acquisition, PrestoBlue® Cell Viability Reagent (Life technologies), a cell permeable resazurin-based solution was used according to manufacturer procedure as a cell viability indicator (Excitation/Emission (nm): 535-560/590-615).

| Structure (SMILES) | effect on KCC2 activity, normalized to the maximal effect obtained with compound 1 (KCC2) [%] | specific activation of KCC2 across a dose range (KCC2; HEK KCC2 compared to WT HEK cells, non-cytotoxic dose range) | cytotoxicity (HEK cells) |
| --- | --- | --- | --- |
| OCCN1CCN(CCCN2c3ccccc3Sc3ccc(Cl)cc32)CC1 [compound 1, 2-[4-[3-(2-chloro-10H-phenothiazin-10-yl)propyl]piperazin-1-yl]ethanol] | 100 | activate specifically KCC2 in a dose dependant manner | – |
| CN1CCN(CCCN2c3ccccc3Sc3ccccc32)CC1 [compound 7, 10-[3-(4-methylpiperazin-1-yl)propyl]-10H-phenothiazine] | 55 | – | – |
| CCSc1ccc2c(c1)N(CCCN1CCN(C)CC1)c1ccccc1S2 [compound 8, 2-(ethylthio)-10-[3-(4-methylpiperazin-1-yl)propyl]-10H-phenothiazine] | – | – | cytotoxic |
